From patent US20080038321A1, “PROPHYLACTIC/THERAPEUTIC COMPOSITIONS FOR LIVER DISEASES” (Ajinomoto Co., Inc., priority 2004, published 2008)

Experiments:
TRB3 [1] = assay: Liver gene expression in high-fat diet GK rats after 6-week administration (quantitative PCR): TRB3; format: in vivo, rat
From the text: (§1) The mRNA levels are expressed while defining the level in the SD group as 1.00. <Primer Sequence>

TRB3 [2] = assay: Suppressive effects of amino acids on TRB3 expression in cultured hepatocytes (Fao cells, quantitative PCR); format: cell-based, rat; conditions: other experiments; 0.03 mM to 0.3 mM
ACO = assay: Liver gene expression in high-fat diet GK rats after 6-week administration (quantitative PCR): ACO; format: in vivo, rat
From the text: as §1

[3] = test system: GK rats fed with high-fat diets; conditions: rat, in vivo
[4] = test system: glucose-6-phosphatase (G6Pase); assay: Effect of L-Asp on G6Pase expression suppressive action of insulin in Fao cells (quantitative PCR); format: cell-based, rat; conditions: for G6Pase expression level: 6 h, -Asp RPMI without insulin = 1.00; for G6Pase expression level (value in parentheses): -Asp RPMI at same insulin concentration = 1.00
Description: To verify whether an amino acid showing a TRB3 expression suppressive action actually increases the insulin action on hepatocytes, how L-Asp acts on glucose-6-phosphatase (G6Pase) expression suppressive action of insulin in rat hepatic cancer-derived Fao cells was studied.
Fao cells were inoculated on a 24-well plate and cultured overnight. Thereafter, 0, 0.3, and 1.0 mM L-Asp and 0, 10^−10, 10^−8, and 10^−6 M insulin were added respectively to a basal medium corresponding to RPMI 1640 medium containing no glucose but 0.1% BSA, except with L-Asp being removed therefrom, and the cells were further cultivated for six hours. RNAs were extracted from the cultured cells, and the expression levels of G6Pase were determined through quantitative PCR.
The G6Pase expression level in −Asp RPMI medium added with no insulin is defined as 1.00.
The values in the parentheses are values while defining the G6Pase expression levels in −Asp RPMI medium at respective insulin concentrations as 1.00, respectively.

CPT-1 = assay: Liver gene expression in high-fat diet GK rats after 6-week administration (quantitative PCR): CPT-1; format: in vivo, rat
From the text: as §1

[5] = HFD + Asp, 6-week administration, HFD = 1.00 in table, n = 6, mean
[6] = L-Asp administration, 6 weeks, HFD

For `N[C@@H](CC(=O)O)C(=O)O` [L-Asp, L-aspartic acid], the “TRB3 mRNA level in liver” value (TRB3 [1]; HFD + Asp, HFD = 1.00 in table, n = 6, mean) was 0.58, the “TRB3 expression relative to HFD group” value (TRB3 [1]; HFD plus Asp group) was 0.58 time and the “suppression of TRB3 expression” value (TRB3 [2]) was “significantly suppresses the TRB3 expression”. The “ACO mRNA level in liver” value (ACO; [5]) was 1.18, the ACO gene expression (ACO; [6]) was 1.18 time and the Body weight [3] was 221 ± 11 g. For the same compound, the G6Pase expression level ([4]; 0.3 mM Asp, insulin 0 M) was 0.603, the “G6Pase expression level (value in parentheses)” value ([4]; 0.3 mM Asp, insulin 0 M) was 0.60 and the G6Pase expression level ([4]; 0.3 mM Asp, insulin 10^-6 M) was 0.014. The “G6Pase expression level (value in parentheses)” value ([4]; 0.3 mM Asp, insulin 10^-6 M) was 0.60, the G6Pase expression level ([4]; 0.3 mM Asp, insulin 10^-8 M) was 0.022 and the “G6Pase expression level (value in parentheses)” value ([4]; 0.3 mM Asp, insulin 10^-8 M) was 0.70. For the same compound, the G6Pase expression level ([4]; 0.3 mM Asp, insulin 10^-10 M) was 0.100, the “G6Pase expression level (value in parentheses)” value ([4]; 0.3 mM Asp, insulin 10^-10 M) was 0.67 and the G6Pase expression level ([4]; 1 mM Asp, insulin 0 M) was 0.397. The “G6Pase expression level (value in parentheses)” value ([4]; 1 mM Asp, insulin 0 M) was 0.40, the G6Pase expression level ([4]; 1 mM Asp, insulin 10^-6 M) was 0.008 and the “G6Pase expression level (value in parentheses)” value ([4]; 1 mM Asp, insulin 10^-6 M) was 0.36. For the same compound, the G6Pase expression level ([4]; 1 mM Asp, insulin 10^-8 M) was 0.016, the “G6Pase expression level (value in parentheses)” value ([4]; 1 mM Asp, insulin 10^-8 M) was 0.52 and the G6Pase expression level ([4]; 1 mM Asp, insulin 10^-10 M) was 0.076. For the same compound, the “G6Pase expression level (value in parentheses)” value ([4]; 1 mM Asp, insulin 10^-10 M) was 0.51, the “G6Pase expression suppressive action” value ([4]; L-Asp alone, glucose starvation) was “G6Pase expression suppressive action even if used alone” and the G6Pase expression suppression ([4]; L-Asp in combination with insulin) was “increased G6Pase expression suppression when used in combination with insulin”. For the same compound, the “CPT-1 mRNA level in liver” value (CPT-1; [5]) was 1.20 and the CPT-1 gene expression (CPT-1; [6]) was 1.20 time.
